From patent US10822349B2, “Macrocyclic purines for the treatment of viral infections” (JANSSEN SCIENCES IRELAND UNLIMITED COMPANY, priority 2012, dated 2020)

Key:
Format in all cases: cell-based
[1] = test system: interferon production in human PBMC; experiment: Interferon production in human PBMC, read out on HEK-ISRE-luc reporter cells; details: Homo sapiens, PBMC, 24 h, lowest effective concentration, PBMC supernatant after overnight incubation transferred to HEK-ISRE-luc cells, read-out: PBMC HEK-ISRE-luc (LEC; μM)
Procedure, shortened: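 Human PBMCs from at least two donors (2×10^5/well, RPMI with 10% human AB serum) incubated overnight with compounds; conditioned supernatant transferred onto HEK-ISRE-luc reporter cells for 24 h. Luciferase read-out reported as LEC, with recombinant interferon alfa-2a as standard.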

human TLR7 = target: T1, human TLR7 (Homo sapiens, UniProt Q9NYK1); experiment: TLR7 cellular reporter assay (HEK293 TLR7-NFκB-luc); details: lowest effective concentration; HEK293 transiently transfected with TLR7 and NFκB-luc; 6 hours incubation
T1 construct: expressed in transfected cells; host or cells: HEK293
T1 sequence (Q9NYK1 27-1049): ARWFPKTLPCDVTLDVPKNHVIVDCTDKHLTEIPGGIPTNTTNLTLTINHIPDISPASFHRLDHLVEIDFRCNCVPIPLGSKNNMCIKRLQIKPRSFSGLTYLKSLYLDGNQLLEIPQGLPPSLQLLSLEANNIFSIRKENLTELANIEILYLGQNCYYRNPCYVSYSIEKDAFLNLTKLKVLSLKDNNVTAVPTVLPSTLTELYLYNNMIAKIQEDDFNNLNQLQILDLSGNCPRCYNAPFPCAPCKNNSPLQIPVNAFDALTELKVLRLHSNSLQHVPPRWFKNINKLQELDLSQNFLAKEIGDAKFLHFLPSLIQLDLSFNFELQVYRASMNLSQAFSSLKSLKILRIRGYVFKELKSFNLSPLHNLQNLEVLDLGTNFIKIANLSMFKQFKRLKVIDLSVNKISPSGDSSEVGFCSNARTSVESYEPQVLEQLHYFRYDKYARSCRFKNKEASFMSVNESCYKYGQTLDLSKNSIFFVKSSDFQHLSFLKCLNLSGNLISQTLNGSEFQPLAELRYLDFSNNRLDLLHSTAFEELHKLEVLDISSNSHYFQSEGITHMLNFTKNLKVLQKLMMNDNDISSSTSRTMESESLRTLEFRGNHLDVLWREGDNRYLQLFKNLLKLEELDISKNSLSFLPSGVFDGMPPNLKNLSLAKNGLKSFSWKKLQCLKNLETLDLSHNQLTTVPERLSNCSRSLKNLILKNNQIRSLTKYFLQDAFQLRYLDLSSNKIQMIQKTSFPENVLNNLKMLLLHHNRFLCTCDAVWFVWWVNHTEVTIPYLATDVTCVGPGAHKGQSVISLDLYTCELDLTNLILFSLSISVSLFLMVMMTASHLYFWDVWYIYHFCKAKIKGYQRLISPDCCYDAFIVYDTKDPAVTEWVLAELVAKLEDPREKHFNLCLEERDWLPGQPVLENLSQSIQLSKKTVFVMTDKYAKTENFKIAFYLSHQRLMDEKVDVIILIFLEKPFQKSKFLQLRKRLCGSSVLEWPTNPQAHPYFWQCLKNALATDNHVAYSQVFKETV
Procedure, shortened: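 HEK293 cells transiently co-transfected with CMV-TLR7 or TLR8 plasmid plus NFκB-luciferase reporter, 48 h post-transfection, then exposed to compound (added in 4% DMSO) for 6 h at 37 °C. Luciferase read-out; quadruplicate dose-response, LEC defined as concentration giving effect at least two-fold above assay SD.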

human TLR8 = target: T2, human TLR8 (Homo sapiens, UniProt Q9NR97); experiment: TLR8 cellular reporter assay (HEK293 TLR8-NFκB-luc); details: lowest effective concentration; HEK293 transiently transfected with TLR8 and NFκB-luc; 6 hours incubation
T2 construct: expressed in transfected cells; host or cells: HEK293
T2 sequence (Q9NR97 27-1041): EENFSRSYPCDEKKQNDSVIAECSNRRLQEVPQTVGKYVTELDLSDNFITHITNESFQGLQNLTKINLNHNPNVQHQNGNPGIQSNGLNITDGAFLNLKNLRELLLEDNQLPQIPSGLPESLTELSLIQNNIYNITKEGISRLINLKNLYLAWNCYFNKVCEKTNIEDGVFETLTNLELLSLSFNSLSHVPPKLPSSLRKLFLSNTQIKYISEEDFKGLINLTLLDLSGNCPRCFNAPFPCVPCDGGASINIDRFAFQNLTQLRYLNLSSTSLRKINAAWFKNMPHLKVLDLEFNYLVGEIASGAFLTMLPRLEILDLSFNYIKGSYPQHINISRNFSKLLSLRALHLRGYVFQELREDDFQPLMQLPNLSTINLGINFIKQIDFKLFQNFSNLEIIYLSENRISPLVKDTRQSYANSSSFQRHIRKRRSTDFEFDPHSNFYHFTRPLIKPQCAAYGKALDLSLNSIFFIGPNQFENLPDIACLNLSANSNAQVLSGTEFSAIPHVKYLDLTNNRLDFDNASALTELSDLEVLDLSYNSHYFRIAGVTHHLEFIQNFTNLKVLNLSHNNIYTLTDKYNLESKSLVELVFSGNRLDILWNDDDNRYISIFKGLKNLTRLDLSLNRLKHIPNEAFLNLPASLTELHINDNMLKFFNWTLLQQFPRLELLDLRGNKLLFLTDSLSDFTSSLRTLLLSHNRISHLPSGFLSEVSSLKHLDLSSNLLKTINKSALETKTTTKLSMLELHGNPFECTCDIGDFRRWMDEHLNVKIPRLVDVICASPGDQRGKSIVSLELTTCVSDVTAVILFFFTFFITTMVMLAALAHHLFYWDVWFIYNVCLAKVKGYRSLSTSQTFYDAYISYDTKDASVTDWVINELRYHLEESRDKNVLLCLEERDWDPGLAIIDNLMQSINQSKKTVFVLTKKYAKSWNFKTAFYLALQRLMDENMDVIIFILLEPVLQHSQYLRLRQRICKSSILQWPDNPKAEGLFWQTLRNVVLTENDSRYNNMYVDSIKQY
Method: The ability of compounds to activate human TLR7 and TLR8 was assessed in a cellular reporter assay using HEK293 cells transiently transfected with a TLR7 or TLR8 expression vector and NFκB-luc reporter construct. Briefly, HEK293 cells were grown in culture medium (DMEM supplemented with 10% FCS and 2 mM Glutamine). For transfection of cells in 10 cm dishes, cells were detached with Trypsin-EDTA, transfected with a mix of CMV-TLR7 or TLR8 plasmid (750 ng), NFκB-luc plasmid (375 ng) and a transfection reagent and incubated 48 hours at 37° C. in a humidified 5% CO2 atmosphere. Transfected cells were then detached with Trypsin-EDTA, washed in PBS and resuspended in medium to a density of 1.67×10^5 cells/mL. Thirty microliters of cells were then dispensed into each well in 384-well plates, where 10 μL of compound in 4% DMSO was already present. Following 6 hours incubation at 37° C., 5% CO2, the luciferase activity was determined by adding 15 μl of Steady Lite Plus substrate (Perkin Elmer) to each well and readout performed on a ViewLux ultraHTS microplate imager (Perkin Elmer). Dose response curves were generated from measurements performed in quadruplicates. Lowest effective concentrations (LEC) values, defined as the concentration that induces an effect which is at least two fold above the standard deviation of the assay, were determined for each compound.

Compound | minimal effective concentration [1] [µM] | HEK293 TLR7-NFκB-luc (LEC; μM) (human TLR7) [µM] | LEC on HEK293 TLR8-NFκB-luc (human TLR8) [µM]
Nc1nc2nc3c1nc(O)n3Cc1ncccc1OCC/C=C\CO2 [Compound 39] | 0.22 | 1.16 | 20.46
Nc1nc2nc3c1nc(O)n3Cc1ncccc1OCC/C=C/CO2 [Compound 40] | 0.15 | 1.3 | > 19.49
Nc1nc2nc3c1nc(O)n3Cc1ncccc1/C=C\CCCO2 [Compound 41] | 0.48 | 1.93 | 11.16
Nc1nc2nc3c1nc(O)n3Cc1ccccc1C/C=C/CCO2 [Compound 47] | 2.34 | 3.43 | 5.48
COc1cc2cc(c1)OC/C=C/COc1nc(N)c3nc(O)n(c3n1)C2 [Compound 75] | 0.0026 | 0.0068 | 0.27
